Experimental data taken from PMC11714206, “Massively Parallel Screening of Toll/Interleukin‐1 Receptor (TIR)‐Derived Peptides Reveals Multiple Toll‐Like Receptors (TLRs)‐Targeting Immunomodulatory Peptides” (Advanced Science, 2024).
“And” between values parts separate entries of the source, which are not always exact repeats. Identical values can stand only once.

Target: T1, MAL^TIR (Homo sapiens, UniProt P58753)
T1 construct: MAL (residues 79–221); 6xHis; made in house; host or cells: E. coli BL21 (DE3)
T1 sequence (P58753 79-221): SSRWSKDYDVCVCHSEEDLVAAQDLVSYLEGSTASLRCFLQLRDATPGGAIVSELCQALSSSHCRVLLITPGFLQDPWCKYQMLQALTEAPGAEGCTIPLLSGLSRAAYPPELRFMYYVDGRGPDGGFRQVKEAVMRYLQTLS
Assay: T‐Surf phage library (P8 and P3) selection against MAL^TIR, four rounds, NGS read counts
Type: binding
Details: for P8_MAL Rank (after) / P8_MAL Rank (before): P8 library; for Population: 4th round of selection against MAL TIR, share of NGS reads; for P3_MAL Rank (after) / P3_MAL Rank (before): P3 library
How it was run: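 Four panning rounds on TIR domain adsorbed at 5 µg mL^−1; binding 1 h at 20–22 °C, elution with 100 mM HCl. Output: NGS read counts of round‐4 pools versus naïve library.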

[1] = P8_MAL: rank by count after grouping
[2] = P8_MAL: rank by count before grouping
[3] = selection against MAL TIR, rank by count after grouping
[4] = selection against MAL TIR, rank by count before grouping
[5] = selection against MAL, rank by count after grouping
[6] = selection against MAL, rank by count before grouping
[7] = selection against MAL, rank after grouping
[8] = selection against MAL, rank before grouping
[9] = P8_MAL pool: P8 T-Surf phage library
[10] = 4R selection against MAL, rank after grouping
[11] = 4R selection against MAL, rank before grouping
[12] = P3_MAL: rank by count after grouping
[13] = P3_MAL: rank by count before grouping
[14] = P3_MAL pool: P3 T-Surf phage library

## WFYERMVSLILRDTKL
[1]
  Rank (after): 136
[2]
  Rank (before): 1262

## WFYERMVSMILRDTKV
[3]
  P8_MAL Rank (after): 280
[4]
  P8_MAL Rank (before): 1261

## WFYERPVSLILRDTIV
[1]
  Rank (after): 153
[2]
  Rank (before): 1256

## WFYERQVSLILRDTNV
[1]
  Rank (after): 98
[2]
  Rank (before): 1259

## WFYERRVSLILLLTIV
[5]
  P8_MAL Rank (after): 684
[6]
  P8_MAL Rank (before): 1253

## WFYESLVSLILRDTIV
[1]
  Rank (after): 122
[2]
  Rank (before): 1299

## WFYESLVSLLTRDTKV
[7]
  P8_MAL Rank (after): 547
[8]
  P8_MAL Rank (before): 1298

## WFYESLVSMIMRDTKV
[3]
  P8_MAL Rank (after): 213
[4]
  P8_MAL Rank (before): 1303

## WFYGRLVSLILRDTKV
[9]
  Population: 0.0034%

## WFYGRLVSLMLRDAKR
[10]
  P8_MAL Rank (after): 595
[11]
  P8_MAL Rank (before): 1130

## WFYKPLVSLILRDTKA
[10]
  P8_MAL Rank (after): 619
[11]
  P8_MAL Rank (before): 1307

## WFYKRLVSLILRDTKV
[9]
  Population: 0.00402%

## WFYNHLVSLFLRDTKV
[7]
  P8_MAL Rank (after): 520
[8]
  P8_MAL Rank (before): 1306

## WFYVRLVILALRDNNM
[5]
  P8_MAL Rank (after): 690
[6]
  P8_MAL Rank (before): 1128

## WHFHLRLRMHDLLQNI
[5]
  P3_MAL Rank (after): 738
[6]
  P3_MAL Rank (before): 1300

## WHFHLRLRMLALLQKM
[10]
  P3_MAL Rank (after): 582
[11]
  P3_MAL Rank (before): 1294

## WHFHLRLRMPDPLQKI
[12]
  Rank (after): 432
[13]
  Rank (before): 1297

## WHFHVRLCLRKLLQAM
[5]
  P3_MAL Rank (after): 694
[6]
  P3_MAL Rank (before): 1290

## WHFPLPLRMQELLRKM
[12]
  Rank (after): 436
[13]
  Rank (before): 1289

## WHLHLRLRMHDLLQQM
[7]
  P3_MAL Rank (after): 537
[8]
  P3_MAL Rank (before): 1311

## WIYERLVSRILRDTKV
[1]
  Rank (after): 163
[2]
  Rank (before): 1430

## WLYERLVGLILRYTKV
[10]
  P8_MAL Rank (after): 638
[11]
  P8_MAL Rank (before): 1425

## WLYERLVSLILRDTKV
[9]
  Population: 0.00402% and 0.00371%

## WLYERLVSLILRDTQV
[1]
  Rank (after): 108
[2]
  Rank (before): 1426

## WLYERLVSLSLRDTKV
[1]
  Rank (after): 168
[2]
  Rank (before): 1429

## WLYVRLVSLILRDTKV
[1]
  Rank (after): 144
[2]
  Rank (before): 1392

## WQFHLRLRMHELLQKM
[3]
  P3_MAL Rank (after): 245
[4]
  P3_MAL Rank (before): 1314

## WRCLNFVPRCIMCCR
[7]
  P3_MAL Rank (after): 482
[8]
  P3_MAL Rank (before): 1287

## WSLFTVRSVLYAMSPA
[7]
  P8_MAL Rank (after): 518
[8]
  P8_MAL Rank (before): 1407

## WSYERLVRLILRDTKV
[7]
  P8_MAL Rank (after): 539
[8]
  P8_MAL Rank (before): 1406

## WSYERLVSLILRDTKV
[9]
  Population: 0.0034%

## YAARANSGFHTFRDND
[5]
  P3_MAL Rank (after): 740
[6]
  P3_MAL Rank (before): 1489

## YAASPWWFDELVKIVG
[1]
  Rank (after): 390
[2]
  Rank (before): 1526

## YAFKGNLHRYLVQRGV
[12]
  Rank (after): 162
[13]
  Rank (before): 1483

## YAFPFHLFSCPELRGV
[5]
  P3_MAL Rank (after): 742
[6]
  P3_MAL Rank (before): 1345

## YAFSGHLLHDLVLIRE
[12]
  Rank (after): 427
[13]
  Rank (before): 1347

## YAFTAICIVIWCSVA
[12]
  Rank (after): 133
[13]
  Rank (before): 726

## YAFTCHLHRYLVQRGV
[14]
  Population: 0.00413%

## YAFTDHLHRYLVQRGV
[14]
  Population: 0.00451%

## YAFTDHLHRYLVQRSE
[7]
  P3_MAL Rank (after): 555
[8]
  P3_MAL Rank (before): 1462

## YAFTDHLHRYVVQRGV
[3]
  P3_MAL Rank (after): 209
[4]
  P3_MAL Rank (before): 1463

## YAFTGHFHCCKLQRGV
[10]
  P3_MAL Rank (after): 666
[11]
  P3_MAL Rank (before): 1358

## YAFTGHLERHEVQRGV
[5]
  P3_MAL Rank (after): 715
[6]
  P3_MAL Rank (before): 1367

## YAFTGHLHCYLVQRGI
[3]
  P3_MAL Rank (after): 194
[4]
  P3_MAL Rank (before): 1375

## YAFTGHLHGSLLQRRV
[10]
  P3_MAL Rank (after): 670
[11]
  P3_MAL Rank (before): 1376

## YAFTGHLHHIWCSVA
[5]
  P3_MAL Rank (after): 686
[6]
  P3_MAL Rank (before): 1430

## YAFTGHLHHYFAAKGIKM
[12]
  Rank (after): 385
[13]
  Rank (before): 1428

## YAFTGHLHHYLVQRGV
[14]
  Population: 0.00564%

## YAFTGHLHQFHSWV
[12]
  Rank (after): 480
[13]
  Rank (before): 1431

## YAFTGHLHRFWCSVA
[12]
  Rank (after): 158
[13]
  Rank (before): 727

## YAFTGHLHRSLVQRGV
[14]
  Population: 0.00413%

## YAFTGHLHRSLVQSGV
[12]
  Rank (after): 154
[13]
  Rank (before): 1381

## YAFTGHLHRYHLPAPQH
[3]
  P3_MAL Rank (after): 277
[4]
  P3_MAL Rank (before): 739

## YAFTGHLHRYLAQRGV
[14]
  Population: 0.00488%

## YAFTGHLHRYLCSVA
[12]
  Rank (after): 144
[13]
  Rank (before): 508

## YAFTGHLHRYLLQKM
[3]
  P3_MAL Rank (after): 254
[4]
  P3_MAL Rank (before): 737

## YAFTGHLHRYLLQRGG
[7]
  P3_MAL Rank (after): 543
[8]
  P3_MAL Rank (before): 1418

## YAFTGHLHRYLMPRGV
[5]
  P3_MAL Rank (after): 698
[6]
  P3_MAL Rank (before): 1420

## YAFTGHLHRYLMRTKT
[14]
  Population: 0.00338%
[12]
  Rank (after): 114
[13]
  Rank (before): 186

## YAFTGHLHRYLQAKDH
[7]
  P3_MAL Rank (after): 496
[8]
  P3_MAL Rank (before): 1419

## YAFTGHLHRYLV*RGV
[14]
  Population: 0.00564%

## YAFTGHLHRYLVQCGV
[14]
  Population: 0.00338%

## YAFTGHLHRYLVQLGV
[14]
  Population: 0.00676%

## YAFTGHLHRYLVQPGG
[3]
  P3_MAL Rank (after): 249
[4]
  P3_MAL Rank (before): 1409

## YAFTGHLHRYLVQRA
[12]
  Rank (after): 137
[13]
  Rank (before): 398

## YAFTGHLHRYLVQRAL
[14]
  Population: 0.00451%
[12]
  Rank (after): 104
[13]
  Rank (before): 149

## YAFTGHLHRYLVQRDM
[12]
  Rank (after): 391
[13]
  Rank (before): 1403

## YAFTGHLHRYLVQRFA
[7]
  P3_MAL Rank (after): 514
[8]
  P3_MAL Rank (before): 1393

## YAFTGHLHRYLVQRGA
[14]
  Population: 0.00338%

## YAFTGHLHRYLVQRGEP
[12]
  Rank (after): 443
[13]
  Rank (before): 1397

## YAFTGHLHRYLVQRGI
[14]
  Population: 0.00338%

## YAFTGHLHRYLVQRGL
[14]
  Population: 0.00376%

## YAFTGHLHRYLVQRGVHGGD
[7]
  P3_MAL Rank (after): 560
[8]
  P3_MAL Rank (before): 1396

## YAFTGHLHRYLVQRKQI
[5]
  P3_MAL Rank (after): 752
[6]
  P3_MAL Rank (before): 1404

## YAFTGHLHRYLVQRRS
[5]
  P3_MAL Rank (after): 704
[6]
  P3_MAL Rank (before): 1408

## YAFTGHLHRYLVQRSGI
[3]
  P3_MAL Rank (after): 203
[4]
  P3_MAL Rank (before): 733

## YAFTGHLHRYLVRRGV
[14]
  Population: 0.00338%

## YAFTGHLHRYLVRRSA
[7]
  P3_MAL Rank (after): 561
[8]
  P3_MAL Rank (before): 1392

## YAFTGHLHSYLVQRGV
[14]
  Population: 0.00338%

## YAFTGHLNRSLVQRGV
[3]
  P3_MAL Rank (after): 199
[4]
  P3_MAL Rank (before): 1440

## YAFTGHLPRYLVQRGG
[12]
  Rank (after): 425
[13]
  Rank (before): 1373

## YAFTGHLQRYLLQRGV
[12]
  Rank (after): 188
[13]
  Rank (before): 1460

## YAFTGHLQRYLVQRGE
[5]
  P3_MAL Rank (after): 719
[6]
  P3_MAL Rank (before): 1435

## YAFTGHLRHHLQAKDH
[12]
  Rank (after): 120
[13]
  Rank (before): 394
